# pIC50: −log10 of the molar value.
# Target: T1, CCR2 (Homo sapiens, UniProt P41597)
# T1 sequence (P41597 1-360 isoform P41597-2): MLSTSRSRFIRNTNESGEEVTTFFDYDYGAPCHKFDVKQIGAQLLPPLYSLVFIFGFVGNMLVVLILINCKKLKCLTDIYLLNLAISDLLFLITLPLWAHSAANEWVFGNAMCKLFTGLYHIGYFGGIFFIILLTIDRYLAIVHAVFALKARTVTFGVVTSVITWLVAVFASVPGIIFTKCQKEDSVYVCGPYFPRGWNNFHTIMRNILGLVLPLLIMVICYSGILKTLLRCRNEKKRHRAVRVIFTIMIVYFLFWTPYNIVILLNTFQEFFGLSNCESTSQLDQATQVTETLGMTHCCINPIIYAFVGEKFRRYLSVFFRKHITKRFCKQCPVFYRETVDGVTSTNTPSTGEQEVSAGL
# Conditions: not given
row,pIC50,SMILES
1,6.39,O=CNCC(C1CCN(C(=O)/C=C/c2cc(F)cc(F)c2)CC1)N1CCC(c2c[nH]c3ccccc23)CC1 (stereo not shown) [Cpd 221]
2,5.70,"CS(=O)(=O)Nc1ccc(C2CCN(C(C(=O)O)C3CCN(C(=O)/C=C/c4cc(F)c(F)c(F)c4)CC3)CC2)cc1 (stereo not shown) [Cpd 206, [4-(4-methanesulfonylamino-phenyl)-piperidin-1-yl]-{1-[(2E)-3-(3,4,5-trifluoro-phenyl)-acryloyl]-piperidin-4-yl}-acetic acid]"
3,5.70,O=C(/C=C/c1cc(F)cc(F)c1)N1CCC(C(CO)N2CCC(c3ccccn3)CC2)CC1 (stereo not shown) [Cpd 200]
4,5.24,CN(C)CC(=O)NCC(C1CCN(C(=O)/C=C/c2cc(F)cc(F)c2)CC1)N1CCC(c2c[nH]c3ccccc23)CC1 (stereo not shown) [Cpd 252]
5,5.77,CCNC(=O)NCC(C1CCN(C(=O)/C=C/c2cc(F)cc(F)c2)CC1)N1CCC(c2c[nH]c3ccccc23)CC1 (stereo not shown) [Cpd 229]
6,5.62,"COCC(C1CCN(C(=O)/C=C/c2cc(F)cc(F)c2)CC1)N1CCC(c2ccc(OC)cc2)CC1 (stereo not shown) [Cpd 255, (2E)-3-(3,5-difluoro-phenyl)-1-(4-{2-methoxy-1-[4-(4-methoxy-phenyl)-piperidin-1-yl]-ethyl}-piperidin-1-yl)-propenone]"
7,5.62,"COC(=O)NCC(C1CCN(C(=O)/C=C/c2cc(F)c(F)c(F)c2)CC1)N1CCC(c2c[nH]c3ccccc23)CC1 (stereo not shown) [Cpd 238, (2-[4-(1H-indol-3-yl)-piperidin-1-yl]-2-{1-[(2E)-3-(3,4,5-trifluoro-phenyl)-acryloyl]-piperidin-4-yl}-ethyl)-carbamic acid methyl ester]"

# Second part, the compound before the results:
row,SMILES,pIC50
1,"O=C(O)C(C1CCN(C(=O)Nc2ccc(F)c(F)c2F)CC1)N1CCC(c2c[nH]c3ccccc23)CC1 (stereo not shown) [Cpd 125, [4-(1H-indol-3-yl)-piperidin-1-yl]-[1-(2,3,4-trifluoro-phenylcarbamoyl)-piperidin-4-yl]-acetic acid]",5.77
2,"O=C(CC1CCN(C(C(=O)O)C2CCN(C(=O)/C=C/c3cc(F)cc(F)c3)CC2)CC1)NCc1ccccc1 (stereo not shown) [Cpd 148, [4-(benzylcarbamoyl-methyl)-piperidin-1-yl]-{1-[(2E)-3-(3,5-difluoro-phenyl)-acryloyl]-piperidin-4-yl}-acetic acid]",5.06
3,"COC(=O)c1ccc(NC(=O)N2CCC(C(C(=O)O)N3CCC(c4c[nH]c5ccccc45)CC3)CC2)cc1 (stereo not shown) [Cpd 68, 4-[(4-{carboxy-[4-(1H-indol-3-yl)-piperidin-1-yl]-methyl}-piperidine-1-carbonyl)-amino]-benzoic acid methyl ester]",5.45
4,"O=C(O)C(C1CCN(C(=S)Nc2cccc(Br)c2)CC1)N1CCC(c2c[nH]c3ccccc23)CC1 (stereo not shown) [Cpd 56, [1-(3-bromo-phenylthiocarbamoyl)-piperidin-4-yl]-[4-(1H-indol-3-yl)-piperidin-1-yl]-acetic acid]",7.22
5,"O=C(O)C(C1CCN(C(=S)Nc2ccccc2)CC1)N1CCC(c2c[nH]c3ccccc23)CC1 (stereo not shown) [Cpd 43, [4-(1H-indol-3-yl)-piperidin-1-yl]-(1-phenylthiocarbamoyl-piperidin-4-yl)-acetic acid]",5.96
6,"O=C(O)C(C1CCN(C(=O)/C=C/c2cc(F)c(F)c(F)c2)CC1)N1CCC(Cc2c[nH]c3ccccc23)CC1 (stereo not shown) [Cpd 12, [4-(1H-indol-3-ylmethyl)-piperidin-1-yl]-{1-[(2E)-3-(3,4,5-trifluoro-phenyl)-acryloyl]-piperidin-4-yl}-acetic acid]",6.39
7,"O=C(O)C(C1CCN(C(=S)Nc2cc(F)cc(F)c2)CC1)N1CCC(c2c[nH]c3ccccc23)CC1 (stereo not shown) [Cpd 55, [1-(3,5-difluoro-phenylthiocarbamoyl)-piperidin-4-yl]-[4-(1H-indol-3-yl)-piperidin-1-yl]-acetic acid]",6.94
8,"COc1ccc(NC(=O)N2CCC(C(C(=O)O)N3CCC(c4c[nH]c5ccccc45)CC3)CC2)cc1 (stereo not shown) [Cpd 69, [4-(1H-indol-3-yl)-piperidin-1-yl]-[1-(4-methoxy-phenylcarbamoyl)-piperidin-4-yl]-acetic acid]",4.85

# Same assay, conditions: read-out: Inhibition of MCP-1 Binding, percent inhibition
row,inhibition at 25 µM [%],SMILES
1,58,COC(=O)NCC(C1CCN(C(=O)/C=C/c2cccc(C)c2)CC1)N1CCC(c2c[nH]c3ccccc23)CC1 (stereo not shown) [Cpd 241]
